The text below walks through data of patent US20240050420A1, “NANOMEDICINES FOR TREATMENT OF DISEASE” (Chapman University, priority 2022, published 2024).

Data set [1] concerns Pkd2 mice. The data set is described as follows: 9-week treatment of Pkd2 mice: body weight, survival, cysts, fibrosis, kidney fluorescence. The note with it: long-term use, drug-alone 1 mg/kg i.v. daily.
Text: FIG. 5A: Kidney comparison of wild-type (WT) and Pkd2 kidneys after 9-weeks of treatment. Color, brightfield, fluorescent images were captured consecutively. The hematoxylin and eosin (H&E) sections were obtained from the same corresponding kidneys.
FIG. 5B: Fluorescence intensity measurements from isolated kidneys were normalized to total kidney volume (TKV). […] FIG. 5D: Total kidney weight measurement. FIG. 5D. Percent weight ratio of 2 kidneys to body weight (2 KW/BW). FIG. 5F: Total cyst number calculated using H&E staining. FIG. 5G: Kaplan-Meier survival curves analyzed with Log-rank test. N=5 for all experiments. *P<0.05, **P<0.01, ***P<0.001, ****P<0.0001 compared to wild-type vehicle. #P<0.05, ##P<0.01, #44P<0.001, #44t #P<0.0001 compared to Pkd2 vehicle. Statistical analysis was performed using ANOVA followed by Tukey's multiple comparison test.
Animal studies. […] All animal experimentation was conducted as double-blinded operators to disregard biases and critical analyses. All control (KspCre·Pkd2^WT/WT) and PKD (KspCre·Pkd2^flox/flox) non-inducible mice models were obtained from the Jackson Laboratory and Harvard Medical School.
Histology Studies. Sections of the mouse visceral organs (hearts, kidneys, livers, spleens, and lung)s, were collected and subjected to hematoxylin and eosin (H&E) staining by starting the tissue fixation using 10% formalin. Then, the tissues were dehydrated in buffered formalin, ethanol, and xylene. Finally, the tissues were embedded in liquid paraffin, sectioned (5 μm), and stained with H&E for histological examinations. The pathology slices were observed and imaged using a KEYENCE BZ-X710 microscope. Mouse normal and polycystic kidney sections were stained with Masson's trichrome to detect fibrosis using a Masson's Trichrome Stain Kit (Polysciences, Inc.).
Throughout the studies, KspCre·Pkd2^WT/WT and KspCre·Pkd2^flox/flox mouse models were used and are respectively referred to wild-type and Pkd2 mice henceforth.
A short description of data set [2]: Drug loading of NPs quantified by HPLC. The class given is physicochemical. The note with it: loading into PLGA nanoparticles. The method, then: For both rapamycin and 4-hydoxy-TEMPO encapsulated nanoparticles (RapaTEMPO-NPs) were synthesized by a combination (1000 mg) and rapamycin (20 mg) and 4-hydoxy-TEMPO (20 mg) (polymer to total drug ratio […]) was chosen. Also, 50 mg of 3,3′-diethylthiadicarbocyanine iodide (Cy5, 680 fluorescent emission agent) was dissolved in 20 mL of DMSO. The mixture was then added into the dispersing phase (40 mL of water with 1.2 mL of 10% Pluronic F-68) dropwise under moderate magnetic stirring (500 rpm, 1 h). For size and shape measurements, synthesized nanomaterials were examined by SEM using a TESCAN GAIA-3 XMH integrated focused ion beam-FESEM electron microscope. […] XPS spectra of the samples were recorded on a Kratos Analytical AXIS Supra system with a monochromated Al/Ag X-ray source (Al target). Total survey spectra were recorded in a range from 1300 to −5 eV binding energy (dwell time 200 ms, step size 1 eV, 2 sweeps), and all the region scans were conducted with suitable ranges (dwell time 500 ms, step size 0.05 eV and 5 sweeps). The FTIR spectra were recorded using a Bruker ALPHA (Platinum-ATR) spectrometer in the diffuse reflectance mode at a resolution of 4 cm^−1. The rapamycin and 4-yydoxy-TEMPO loading efficiencies were quantified by High-Performance Liquid Chromatography (HPLC; SHIMADZU). […]

Data set [3] is described as follows: Drug release from NPs by dialysis and HPLC. The class given is physicochemical. The note with it: monitored over a 7-day period; growth media with serum. From the text:
FIGS. 1A-I depict synthesis and characterization of polycystic kidney targeted nanoparticles. FIG. 1A: Schematic representation of synthesis, drug loading and surface functionalization of PLGA nanoparticles. FIG. 1B: The morphological features of the plain (unloaded) and drugs-loaded PLGA nanoparticles were imaged with scanning electron microscopy. Scale bars, 200 nm. FIG. 1C: Hydrodynamic size distribution of unloaded and drugs-loaded nanoparticles. FIG. 1D: Average zeta-potential measurements of unloaded and drugs-loaded nanoparticles. FIG. 1E: Average hydrodynamic size stability measurements of nanoparticles in saline (PBS), mouse plasma and growth media (DMEM) containing fetal bovine serum. […]
For both rapamycin and 4-hydoxy-TEMPO encapsulated nanoparticles (RapaTEMPO-NPs) were synthesized by a combination (1000 mg) and rapamycin (20 mg) and 4-hydoxy-TEMPO (20 mg) (polymer to total drug ratio […]) was chosen. […] XPS spectra of the samples were recorded on a Kratos Analytical AXIS Supra system with a monochromated Al/Ag X-ray source (Al target). Total survey spectra were recorded in a range from 1300 to −5 eV binding energy (dwell time 200 ms, step size 1 eV, 2 sweeps), and all the region scans were conducted with suitable ranges (dwell time 500 ms, step size 0.05 eV and 5 sweeps). […]

The subject of data set [4] is ADPKD cells. The data set is described as follows: 3D cyst culture in Matrigel/collagen with forskolin and EGF. As to conditions: 3D culture, treatment from day 1, evaluated on day 6. The class given is cell-based, human. The method, then: FIGS. 2A-C depict functional nanoparticle-targeting in 3-dimensional culture. FIG. 2A: Human renal epithelia from normal kidney (NK) cells and autosomal dominant polycystic kidney disease (ADPKD) were grown to form cysts in a 3D Matrigel system with collagen in the presence of forskolin and EGF for 1 day followed by different treatments for 5 additional days. All representative live DIC and fluorescence images were taken at 6 days. Control treatment was denoted as vehicle (saline-only). 3D non-cyst/cyst cultures were imaged for nanoparticles uptake, cyst formation and cysts size measurements. The inset images at the right showing the enlarged cystic area taken from the white square boxes selected from the images at the left. Scale bar, 200 μm. FIG. 2B: Percent number of cysts were measured and plotted in bar graphs; each point represents an averaged of replicate.
3D cyst culture and live imaging. […] To assess the effects of vehicle (saline) and different plain and drug-loaded nanoparticles (1 mg/mL) were added (10 μL) on day one after stimulation with forskolin and cyst formation were evaluated on day 6. The cyst growth was observed by using Nikon live cell microscope using its DIC and fluorescence capabilities. […] Using ×20 lens, the number of cysts and their sizes (in diameter) in each well was counted and measured using an ocular scale from the Nikon Eclipse Imaging Software. […]

In data set [5] the test system is mTOR signaling pathway. The experiment in a line: Immunoblotting of p-S6K and p-S6 in kidney lysates. The class given is in vivo, mice. As to conditions: end of 9 weeks of therapy.
Experimental: Drug-NPs were administered intravenously once, while drug-only was intravenously injected daily. N=5. […] Total-S6K (t-S6K), total-S6 (t-S6) and equal loading control (GAPDH). N=3. FIG. 4C: Immunoblot data for p-S6K in bar graphs. […] Statistical analysis was performed using ANOVA followed by Tukey's multiple comparison test.
Immunoblotting. After the completion of in-life studies, mice treated with the different control, plain and drug-loaded nanoparticles were euthanized, and the kidneys were collected and rinsed with PBS. Approximately 100 mg of tissue samples were placed in RIPA buffer supplemented with Complete Protease Inhibitor (MedChemExpress). […] Samples were then centrifuged at 20 000 rpm for 15 min, and the supernatants were collected and subjected to protein quantification. The PAGE (polyacrylamide gel electrophoresis) on 8-10% SDS gels was performed, followed by semi-dry transfer to PVDF membranes using a Bio-Rad Trans-Blot (Turbo Transfer) machine and detection using antibodies against p-S6 (1:000), p-S6K (1:1000), t-S6 (1:2000), t-S6K (1:2000) and GAPDH (1:1,000) (Cell Signaling Technology). Blots were scanned with both calorimetries to image molecular markers and chemiluminescence to capture the protein signal intensity using a BioRad Gel-doc imaging system.
Data set [6] concerns Pkd2 mice. The experiment in a line: CT imaging of total kidney volume. The class given is in vivo. As to conditions: CT at 3, 6 and 9 weeks. On the procedure: FIGS. 20A-C. FIGS. 20A-B depict coronal and trans-axial CT imaging of mice at 3, 6 and 9 weeks of treatment time. FIG. 20C: Plots showing the total kidney volume at 3, 6 and 9 weeks of treatment time.
Because RapaTEMPO-NPs were applied prior to severe cystic development in the kidneys, lateral (FIG. 20A) and cross-section (FIG. 20B) of computerized tomography scans were performed in the kidneys at 3-, 6- and 9-weeks to monitor progression of changes in kidney volume. […] Longitudinal effects on blood pressure were also monitored throughout the treatment period (FIG. 21). The increase in blood pressure in kidney-specific Pkd2 seemed to be associated with expansion of renal cysts leading to compression in renal vasculature and eventual RAAS activation.

Data set [7] has as its system polycystic kidneys. As to conditions: literature; cited from earlier work.

Entries after “also recorded” stand apart in the source; their conditions may differ.

Regarding `CO[C@H]1C[C@@H]2CC[C@@H](C)[C@@](O)(O2)C(=O)C(=O)N2CCCC[C@H]2C(=O)O[C@H]([C@H](C)C[C@@H]2CC[C@@H](O)[C@H](OC)C2)CC(=O)[C@H](C)/C=C(\C)[C@@H](O)[C@@H](OC)C(=O)[C@H](C)C[C@H](C)/C=C/C=C/C=C/1C` [rapamycin], the Body weight result is reported as “reduced” in data set [1] and “significantly lowered the body weight; also recorded: nor reduces the impediment in body weight gain” in data set [1] (listed as rapamycin-alone).
For the compound `CC1(C)CC(O)CC(C)(C)N1[O]` [4-hydroxy-[2,2,6,6-tetramethylpiperidin-1-yl]oxidanyl], the “Drug loading, weight ratio drug/NPs” value in data set [2] was determined as 34.7±3.1%. Further, the “Time of maximum drug release from NPs” value in data set [3] was “about 3 days”. Also, the “Cyst number and size” value in data set [4] is “some effect”. In data set [5], the “Effect on levels of phosphorylation of S6K and S6” value is “minimal effect”. The “Total kidney volume over treatment time” value in data set [6] is given as “no effect in kidney volume expansion”. Also, in data set [7], the “Kidney injury and fibrosis” value was “alleviate kidney injury and fibrosis by reducing renal superoxide”.
